Assay results: PMC7806715, “Discovery of small molecules targeting the tandem tudor domain of the epigenetic factor UHRF1 using fragment-based ligand discovery” (Scientific Reports, 2021)

What was measured:
[1] = target: T1, UHRF1-TTD (Homo sapiens, UniProt Q96T88); assay: Thermal shift assay (TSA) of TTD; type: binding; conditions: compound at 500 μM; untagged TTD, 150 mM NaCl; mean ± S.D., n=3
T1 construct: Using the isolated His6-TTD (aa 123–283) we performed a thermal shift assay; His6 (N, cleaved yes); made in house; host or cells: Rosetta (DE3) E. coli, pMCSG7
T1 sequence (Q96T88 123-283): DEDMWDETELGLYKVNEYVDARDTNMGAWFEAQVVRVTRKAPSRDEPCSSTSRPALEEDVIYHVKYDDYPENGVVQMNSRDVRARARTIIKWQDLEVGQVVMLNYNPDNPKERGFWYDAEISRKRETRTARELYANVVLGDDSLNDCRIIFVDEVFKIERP
Method: We used three different assays in parallel to screen a ~ 2300-fragment library to identify hits that bind to TTD or inhibit its activities. The first screening method was a direct binding assay, which generally serves as the basis for most fragment screening. Using the isolated His6-TTD (aa 123–283) we performed a thermal shift assay (TSA) to determine the change in melting temperature upon fragment binding. The change in protein melting temperature (ΔTm) caused by each fragment was calculated by comparison to the DMSO controls on the same plate.
The fragment screen was carried out on LightCycler 480 Multiwell Plates 384 (Roche). The TSA mix contains 0.15 mg/ml of His6-TTD, 10 × of SYPRO Orange dye (ThermoFisher) in the TSA buffer (50 mM sodium phosphate, pH = 7, 300 mM NaCl). During the screen, 5 µl of TSA mix was dispensed into each well, and 100 nl of chemical fragments stock (10 mM in DMSO) was added to each well by pintool using Tecan Freedom Evo liquid handler to make the final compound concentration 200 µM. After 1 h of incubation at room temperature, the increase of fluorescence at 580 nm (excitation 465 nm) during the 20–90 degree melting (0.04 °C/s) was measured by LightCycler 480 Instrument II (Roche). For the fragment screen, on seven of the library plates there were 32-wells of DMSO control, while there were 8-wells of DMSO control in the last plate. […] Using un-tagged TTD for TSA provide closer resemblance to the native state of TTD. The lower salt concentration (150 mM NaCl) also allowed better comparison across three different assays during the dose-dependent SAR studies as both AlphaScreen and TR-FRET assay also use buffers containing 150 mM NaCl.

[2] = no reference given; cited from earlier work

## Cc1ccnc(C)c1 [2,4-lutidine]
[1]
  ΔTm at 500 µM: 2.04 ± 0.01 °C
[2]
  pKa: 6.99
